Counter-ions that a name gives are not always drawn. Like-named read-outs stand apart in the source and are kept apart here.
Tests used:
h5-HT4b = target: T1, h5-HT4b (Homo sapiens, UniProt Q13639); assay: 5HT4 antagonism: [3H]GR113808 binding to membranes of h5-HT4b-HEK 293 clone 9 cells; conditions: 30 min at 25° C.
T1 construct: expressed in transfected cells; host or cells: HEK 293 (clone 9), membrane preparation
Description: The cells were then scraped from the plates and suspended in 50 mM Tris-HCl buffer, pH 7.4 and harvested by centrifugation at 23,500 rpm for 10 minutes. The pellet was resuspended in 5 mM Tris-HCl, pH 7.4 and homogenized with an Ultra Turrax homogenizer. The membranes were collected by centrifugation at 30,000 rpm for 20 min, resuspended in 50 mM Tris-HCl pH 7.4 and stored at −80° C. […] 50 μl of 10% DMSO was added for total binding. 50 μl of 1 μM of (+)-trans-(1-butyl-3-hydroxy-4-piperidinyl)methyl 8-amino-7-chloro-2,3-dihydro-1,4-benzodioxin-5-carboxylate (a proprietary 5HT4 agonist of Janssen Pharmaceutica) was added for determination of non-specific binding. The [^3H]GR113808 assay buffer was 50 mM HEPES-NaOH, pH 7.4. The mixtures were incubated for 30 min at 25° C. The incubation was terminated by filtration over a Unifilter 96 GF/B presoaked in 0.1% polyethylenimine, followed by six washing steps with 50 mM HEPES-NaOH, pH 7.4.

[1] = Metabolic stability: incubation with liver microsomes and NADPH-generating system, LC-MS; format: in vitro ADME; conditions: compound 5 μM, microsomes 1 mg/ml, 37 degrees Celsius
Description: Sub-cellular tissue preparations were made according to Gorrod et al. (Xenobiotica 5: 453-462, 1975) by centrifugal separation after mechanical homogenization of tissue. Liver tissue was rinsed in ice-cold 0.1 M Tris-HCl (pH 7.4) buffer to wash excess blood. Tissue was then blotted dry, weighed and chopped coarsely using surgical scissors. The tissue pieces were homogenized in 3 volumes of ice-cold 0.1 M phosphate buffer (pH 7.4).
Tissue homogenates were centrifuged at 9000×g for 20 minutes at 4° C. The resulting supernatant was stored at −80° C. and is designated ‘S9’.
The S9 fraction can be further centrifuged at 100.000×g for 60 minutes (4° C.). The resulting supernatant was carefully aspirated, aliquoted and designated ‘cytosol’. The pellet was re-suspended in 0.1 M phosphate buffer (pH 7.4) in a final volume of 1 ml per 0.5 g original tissue weight and designated ‘microsomes’.
All sub-cellular fractions were aliquoted, immediately frozen in liquid nitrogen and stored at −80° C. until use.
Control samples contained the same material but the microsomes were replaced by heat inactivated (10 minutes at 95 degrees Celsius) microsomes. Recovery of the compounds in the control samples was always 100%.
The mixtures were preincubated for 5 minutes at 37 degrees Celsius. The reaction was started at time point zero (t=0) by addition of 0.8 mM NADP and the samples were incubated for 60 minutes (t=60). The reaction was terminated by the addition of 2 volumes of DMSO. Then the samples were centrifuged for 10 minutes at 900×g and the supernatants were stored at room temperature for no longer as 24 hours before analysis. All incubations were performed in duplo. Analysis of the supernatants was performed with LC-MS analysis. Elution of the samples was performed on a Xterra MS C18 (50×4.6 mm, 5 μm, Waters, US). An Alliance 2790 (Supplier: Waters, US) HPLC system was used. Elution was with buffer A (25 mM ammoniumacetate (pH 5.2) in H2O/acetonitrile (95/5)), solvent B being acetonitrile and solvent C methanol at a flow rate of 2.4 ml/min. The gradient employed was increasing the organic phase concentration from 0% over 50% B and 50% C in 5 min up to 100% B in 1 minute in a linear fashion and organic phase concentration was kept stationary for an additional 1.5 minutes. Total injection volume of the samples was 25 μl.
A Quatro triple quadrupole mass spectrometer fitted with and ESP source was used as detector. The source and the desolvation temperature were set at 120 and 350° C. respectively and nitrogen was used as nebuliser and drying gas. Data were acquired in positive scan mode (single ion reaction). Cone voltage was set at 10 V and the dwell time was 1 second.
Metabolic stability was expressed as % metabolism of the compound after 60 minutes (equation given as example) of incubation in the presence of active microsomes (E(act))

[2] = displacement of 0.1 nM [3H]GR113808, membranes of h5-HT4b-HEK 293 cells, read-out: pIC50 (converted)

T1 sequence (Q13639 whole entry): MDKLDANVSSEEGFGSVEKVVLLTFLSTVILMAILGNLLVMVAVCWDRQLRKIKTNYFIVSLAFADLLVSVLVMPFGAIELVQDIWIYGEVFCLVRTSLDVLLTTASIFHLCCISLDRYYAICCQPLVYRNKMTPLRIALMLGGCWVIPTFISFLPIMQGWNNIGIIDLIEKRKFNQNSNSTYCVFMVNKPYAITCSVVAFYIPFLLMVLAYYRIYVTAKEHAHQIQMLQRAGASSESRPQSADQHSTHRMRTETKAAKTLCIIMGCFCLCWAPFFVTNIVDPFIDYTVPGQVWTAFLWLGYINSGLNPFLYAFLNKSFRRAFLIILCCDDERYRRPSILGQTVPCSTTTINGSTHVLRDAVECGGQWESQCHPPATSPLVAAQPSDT

| IC50 (h5-HT4b; [2]) | % metabolised compound after 60 minutes [1] | melting point | IC50 (h5-HT4b; pIC50, displacement of 0.1 nM [3H]GR113808, membranes of h5-HT4b-HEK 293 cells) | Structure (SMILES) |
| --- | --- | --- | --- | --- |
| 0.407 nM | 15% | – | – | NS(=O)(=O)CCCCN1CC[C@@H](CNC(=O)c2cc(F)cc3c2OCCCO3)[C@H](O)C1 [Compound 35] |
| 1.95 nM | – | – | – | CC(C)NS(=O)(=O)CCCN1CCC(CNC(=O)c2cc(Cl)cc3c2OCCCO3)C(O)C1 (stereo not shown) [Compound 14] |
| 20.9 nM | 6% | – | – | Cc1cc2c(c(C(=O)NCC3(O)CCN(CCCCS(N)(=O)=O)CC3)c1)OCCCO2 [Compound 48] |
| 3.39 nM | – | – | – | Cc1ccc(C(=O)NCC2CCN(CCCS(=O)(=O)NC(C)C)CC2O)c2c1OCCCO2 (stereo not shown) [Compound 13] |
| 12.6 nM | 2% | – | – | NS(=O)(=O)CCCCN1CCC(CNC(=O)c2cc(F)cc3c2OCCCO3)C(O)C1 (stereo not shown) [Compound 39] |
| 5.75 nM | 8% | – | – | Cc1ccc(C(=O)NC[C@@H]2CCN(CCS(N)(=O)=O)C[C@H]2O)c2c1OCCCO2 [Compound 23] |
| 3.63 nM | 0% | – | – | COc1ccc(C(=O)NC[C@@H]2CCN(CCCCS(N)(=O)=O)C[C@H]2O)c2c1OCCCO2 [Compound 32] |
| 2.88 nM | 53% | – | – | CNS(=O)(=O)CCCN1CCC(CNC(=O)c2cc(C)cc3c2OCCCO3)C(O)C1 (stereo not shown) [Compound 24] |
| 2.19 nM | – | – | – | CNS(=O)(=O)CCCN1CC[C@@H](CNC(=O)c2cc(Cl)cc3c2OCCCO3)[C@H](O)C1 (relative stereo) [Compound 33] |
| 1.7 nM | – | – | – | COC1CN(CCCCS(N)(=O)=O)CCC1CNC(=O)c1cc(Cl)c(Br)c2c1OCCCO2 (stereo not shown) [Compound 43] |
| 56.2 nM | – | – | – | COC1CN(CCCS(N)(=O)=O)CCC1CNC(=O)c1cc(C#N)cc2c1OCCCO2 (stereo not shown) [Compound 41] |
| 4.68 nM | 2% | – | – | Cc1cc2c(c(C(=O)NCC3CCN(CCCCS(N)(=O)=O)CC3O)c1)OCCCO2 (stereo not shown) [Compound 20] |
| 1.15 nM | – | – | – | CNS(=O)(=O)CCCN1CC[C@@H](CNC(=O)c2ccc(C)c3c2OCCCO3)[C@H](O)C1 [Compound 34] |
| 3.39 nM | 14% | – | – | Cc1cc2c(c(C(=O)NCC3CCN(CCCS(N)(=O)=O)CC3O)c1)OCCCO2 (stereo not shown) [Compound 19] |
| – | 28.5% | 162 °C | 5.37 nM | NS(=O)(=O)CCN1CC[C@@H](CNC(=O)c2cc(Cl)cc3c2OCCCO3)[C@H](O)C1 [Compound 22] |
| 28.8 nM | 9% | – | – | COc1ccc(C(=O)NCC2CCN(CCCCS(N)(=O)=O)CC2OC)c2c1OCCO2 (stereo not shown) [Compound 6] |
| 12 nM | 5% | – | – | Cc1ccc(C(=O)NC[C@@H]2CCN(CCCC(=O)NS(C)(=O)=O)C[C@H]2O)c2c1OCCCO2 [Compound 27] |
| 8.51 nM | 8.5% | – | – | Cc1cc2c(c(C(=O)NC[C@@H]3CCN(CCS(N)(=O)=O)C[C@H]3O)c1)OCCCO2 [Compound 25] |
| 5.25 nM | 7% | – | – | Cc1ccc(C(=O)NCC2CCN(CCCS(N)(=O)=O)CC2O)c2c1OCCCO2 (stereo not shown) [Compound 18] |

| IC50 (h5-HT4b; [2]) | % metabolised compound after 60 minutes [1] | melting point | IC50 (h5-HT4b; pIC50, displacement of 0.1 nM [3H]GR113808, membranes of h5-HT4b-HEK 293 cells) | Structure (SMILES) |
| --- | --- | --- | --- | --- |
| 3.98 nM | – | – | – | Cc1cc2c(c(C(=O)NC[C@@H]3CCN(CCCS(=O)(=O)NC(C)C)C[C@H]3O)c1)OCCCO2 (relative stereo) [Compound 11] |
| 35.5 nM | 36% | 110 °C | – | CS(=O)(=O)NC(=O)CCCN1CC[C@@H](CNC(=O)c2cc(Cl)cc3c2OCCCO3)[C@H](O)C1 [Compound 15] |
| – | – | 142 °C | – | Cc1ccc(C(=O)NC[C@@H]2CCN(CCCC(=O)NS(C)(=O)=O)C[C@H]2O)c2c1OCCCO2 (as salt: hydrochloride) [Compound 27] |
| 1.62 nM | – | – | – | Cc1cc2c(c(C(=O)NC[C@@H]3CCN(CCCS(=O)(=O)Nc4ccccc4)C[C@H]3O)c1)OCCCO2 (relative stereo) [Compound 12] |
| 1.38 nM | – | – | – | COC1CN(CCCCS(N)(=O)=O)CCC1CNC(=O)c1cc(Cl)cc2c1OCCCO2 (stereo not shown) [Compound 45] |
| 1.7 nM | 12% | – | – | NS(=O)(=O)CCCCN1CC[C@@H](CNC(=O)c2cc(Cl)c(Cl)c3c2OCCCO3)[C@H](O)C1 (relative stereo) [Compound 30] |
| 0.891 nM | 18% | – | – | NS(=O)(=O)CCCCN1CCC(CNC(=O)c2cc(Cl)c(Br)c3c2OCCCO3)C(O)C1 (stereo not shown) [Compound 31] |
| 0.676 nM | 13% | – | – | NS(=O)(=O)CCCCN1CC[C@@H](CNC(=O)c2cc(Cl)cc3c2OCCCO3)[C@H](O)C1 [Compound 26] |
| 3.72 nM | 27% | – | – | CO[C@@H]1CN(CCCCS(N)(=O)=O)CC[C@H]1CNC(=O)c1cc(F)cc2c1OCCCO2 (relative stereo) [Compound 44] |
| 1.78 nM | – | – | – | O=C(NCC1CCN(CCCS(=O)(=O)Nc2ccccc2)CC1O)c1cc(Cl)cc2c1OCCCO2 (stereo not shown) [Compound 17] |
| 1.29 nM | – | – | – | Cc1ccc(C(=O)NCC2CCN(CCCS(=O)(=O)Nc3ccccc3)CC2O)c2c1OCCCO2 (stereo not shown) [Compound 10] |
| 3.02 nM | 21% | – | – | NS(=O)(=O)CCCN1CCC(CNC(=O)c2cc(Cl)cc3c2OCCCO3)C(O)C1 (stereo not shown) [Compound 21] |
| 158 nM | 0% | – | – | COc1ccc(C(=O)NCC2CCN(CCCCS(N)(=O)=O)CC2O)c2c1OCCCO2 (stereo not shown) [Compound 40] |
| 100 nM | 0% | – | – | COc1ccc(C(=O)NCC2(O)CCN(CCCCS(N)(=O)=O)CC2)c2c1OCCCO2 [Compound 47] |
| 11.2 nM | 3% | – | – | Cc1cc2c(c(C(=O)NCC3CCN(CCCCS(N)(=O)=O)CC3O)c1)OCCCO2 (stereo not shown) [Compound 38] |
| 50.1 nM | – | 186 °C | – | Nc1cc2c(c(C(=O)NC[C@@H]3CCN(CCCS(N)(=O)=O)C[C@H]3O)c1)OCCCO2 (relative stereo) [Compound 8] |
| 1.86 nM | 3% | – | – | NS(=O)(=O)CCCCN1CC[C@@H](CNC(=O)c2cc(F)cc3c2OCCO3)[C@H](O)C1 [Compound 7] |
| 4.17 nM | – | – | – | COC1CN(CCCS(N)(=O)=O)CCC1CNC(=O)c1cc(F)cc2c1OCCCO2 (stereo not shown) [Compound 46] |
| 1.51 nM | – | – | – | COC1CN(CCCCS(N)(=O)=O)CCC1CNC(=O)c1cc(Cl)c(Cl)c2c1OCCCO2 (stereo not shown) [Compound 42] |
